Test results from the supplement of paper PMC8671470.

Columns and labels:
Experiment in all cases: cell viability (% survival relative to DMSO control); higher = less cytotoxic
Settings in all cases: 72 h
[1] = test system: myeloid leukemia patient primary cells Pat.7
Method in brief: (§1)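 Thawed, Ficoll-purified mononuclear cells from AML or CML patients in RPMI 1640 with 10% FBS were seeded at 10,000 cells/well on 384-well plates pre-printed with 70 compounds at five tenfold concentrations, 1–10,000 nM, in duplicate, for 72 h. Viability was read by CellTiter-Glo and normalised to DMSO and 10 μM proteasome-inhibitor wells. Where given, area under the curve came from four-parameter log-logistic fits (drc, PharmacoGx R packages).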

[2] = test system: myeloid leukemia patient primary cells Pat.2
Method in brief: as §1

[3] = test system: myeloid leukemia patient primary cells Pat.4
Method in brief: as §1

[4] = test system: myeloid leukemia patient primary cells Pat.6
Method in brief: as §1

[5] = test system: myeloid leukemia patient primary cells Pat.13
Method in brief: as §1

[6] = test system: myeloid leukemia patient primary cells Pat.15
Method in brief: as §1

[7] = test system: myeloid leukemia patient primary cells Pat.12
Method in brief: as §1

[8] = test system: myeloid leukemia patient primary cells Pat.1
Method in brief: as §1

[9] = test system: myeloid leukemia patient primary cells Pat.8
Method in brief: as §1

[10] = test system: myeloid leukemia patient primary cells Pat.5
Method in brief: as §1

Structure (SMILES): Nc1nc(O)c2c(CCc3ccc(C(=O)N[C@@H](CCC(=O)O)C(=O)O)cc3)c[nH]c2n1 [Pemetrexed]
- cell viability ([1]; 100 nM): 84.5%
- cell viability ([1]; 1000 nM): 74.1%
- cell viability ([1]; 10000 nM): 66.3%
- cell viability ([2]; 1 nM): 81.9%
- cell viability ([2]; 10 nM): 96.3%
- cell viability ([2]; 100 nM): 97.9%
- cell viability ([2]; 1000 nM): 94.3%
- cell viability ([2]; 10000 nM): 87.3%
- cell viability ([3]; 1 nM): > 100%
- cell viability ([3]; 10 nM): 93.8%
- cell viability ([3]; 100 nM): 93.1%
- cell viability ([3]; 1000 nM): 67.3%
- cell viability ([3]; 10000 nM): 82.8%
- cell viability ([4]; 1 nM): 96.3%
- cell viability ([4]; 10 nM): > 100%
- cell viability ([4]; 100 nM): 97.8%
- cell viability ([4]; 1000 nM): 98.7%
- cell viability ([4]; 10000 nM): 78.6%
- cell viability ([5]; 1 nM): 91.5%
- cell viability ([5]; 10 nM): 94.6%
- cell viability ([5]; 100 nM): 90.8%
- cell viability ([5]; 1000 nM): 82.7%
- cell viability ([5]; 10000 nM): 82%
- cell viability ([6]; 1 nM): 96.9%
- cell viability ([6]; 10 nM): 98.4%
- cell viability ([6]; 100 nM): > 100%
- cell viability ([6]; 1000 nM): 63.2%
- cell viability ([6]; 10000 nM): 94.2%
- cell viability ([7]; 1 nM): > 100%
- cell viability ([7]; 10 nM): 94.2%
- cell viability ([7]; 100 nM): 95.4%
- cell viability ([7]; 1000 nM): 99.1%
- cell viability ([7]; 10000 nM): 97.1%
- cell viability ([8]; 1 nM): > 100%
- cell viability ([8]; 10 nM): 99.3%
- cell viability ([8]; 100 nM): > 100%
- cell viability ([8]; 1000 nM): 96.8%
- cell viability ([8]; 10000 nM): 84.1%
- cell viability ([9]; 1 nM): 91.8%
- cell viability ([9]; 10 nM): 88.4%
- cell viability ([9]; 100 nM): 89.8%
- cell viability ([9]; 1000 nM): 78.1%
- cell viability ([9]; 10000 nM): 87.6%
- cell viability ([10]; 1 nM): > 100%
- cell viability ([10]; 10 nM): 88.1%
- cell viability ([10]; 100 nM): 43.2%
- cell viability ([10]; 1000 nM): 83.4%
- cell viability ([10]; 10000 nM): 14.5%
